Consider 9 compounds from patent US20230114728A1 (Venatorx Pharmaceuticals, Inc., priority 2019, published 2023).

The test system of one assay is A. baumannii ATCC 17978. Kind of assay: Broth microdilution MIC in iron-depleted CAMHB (IDM). The class given is cell-based. Particulars: Acinetobacter baumannii, ATCC17978, read-out: Minimum Inhibitory Concentration, ATCC 17978. In a few lines:
(§1)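 Iron-limited medium: CAMHB chelated with Chelex 100, cations restored, pH 7.3. CLSI-based microdilution, 2-8×10^5 CFU/mL inoculum, 37° C for 16-20 h (P. aeruginosa) or 20-24 h (A. baumannii). Endpoint is no visible growth.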
A general note: In broth dilution the organism is exposed to a series of concentrations in liquid medium.

In the next assay the test system is P. aeruginosa ATCC 35151. The description is as above. The class given is cell-based. Particulars: Pseudomonas aeruginosa, ATCC35151; iron-depleted MHB (IDM); hyper-permeable strain; read-out: Minimum Inhibitory Concentration, P. aeruginosa ATCC 35151. Summed up: as §1
Assay [1] deals with P. aeruginosa CDC-0090 producing KPC-5, OXA-50, and PAO. The description is as above. The class given is cell-based. Particulars: Pseudomonas aeruginosa, read-out: Minimum Inhibitory Concentration, P. aeruginosa CDC-0090. Summed up:
as §1

For another assay, the system named is P. aeruginosa CDC-0110. The description is as above. Type of assay: cell-based. Particulars: Pseudomonas aeruginosa, CDC0110, read-out: Minimum Inhibitory Concentration, P. aeruginosa CDC-0110. Summed up:
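MIC is the lowest well showing no visible growth after 16-20 h at 37 °C, starting from 2-8×10^5 CFU/mL in 2-fold serial compound dilutions. Medium: cation-adjusted Mueller Hinton broth iron-depleted with Chelex 100, supplemented back with Ca, Mg and Zn, pH 7.3; CLSI protocol.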

The test system of assay [2] is A. baumannii CDC-0045 producing TEM-1D, OXA-23, and OXA-69. The assay is described as above. The class given is cell-based. Particulars: Acinetobacter baumannii, read-out: Minimum Inhibitory Concentration, CDC-0045.
The next assay has as its target A. baumannii PBP1a (Acinetobacter baumannii, UniProt A0ABX6CK30). In words: Bocillin-FL fluorescence polarization competition binding assay, A. baumannii PBP1a. Particulars: fluorescence polarization competition binding assay using Bocillin-FL; column 1; read-out: A. baumannii PBP1a Potency. The text has this: Example I: Experimental Method for Penicillin-Binding Protein Binding Assays with Bocillin-FL Via Fluorescence Polarization
To determine the ability of boronic acid-based test PBP inhibitors to bind Penicillin Binding Proteins (PBPs), Bocillin-FL (fluorescently-labeled penicillin V; ThermoFisher Scientific) was used in a fluorescence polarization (FP) competition binding assay to assess inhibitor binding to PBP2, PBP3 or PBP4 from Escherichia coli (K12), PBP3 from Pseudomonas aeruginosa (PA01), PBP1a, PBP2 and PBP3 from Acinetobacter baumannii (ATCC 19606), and PBP2 from Neiserria gonorrheae (FA19). PBPs were cloned and purified as described previously (E. coli PBPs, King, D. T, et al., ACS Infectious Diseases 2015, 1, 175-184; P. aeruginosa PBP3, Han et. al., PNAS 2010, 107 (51), 22002-22007; A. baumannii PBPs, Penwell et. al., Antimicrob. Agents Chemother. 2015, 59 (3), 1680-1689; N. gonorrhoeae PBP2, Singh et. al., J Biol. Chem. 2019, 294 (38), 14020-14032). To establish assay conditions for competition binding, enzyme titration/saturation binding experiments were initially performed. Bocillin-FL was prepared at 0.2 μM in a buffer comprised of 50 mM Hepes (pH 8.0), 300 mM NaCl and 5% (v/v) glycerol for reactions with E. coli, P. aeruginosa and N. gonorrhoeae PBPs, and 25 mM Tris (pH 8.0), 200 mM NaCl and 10% (v/v) glycerol and 0.005% (v/v) Tween 20 for reactions with A. baumannii PBPs. Saturation binding was performed by mixing 40 μl of PBP solutions ranging in concentrations from 0-24 μM with 40 μl of the 0.2 μM Bocillin-FL solution, in individual wells of a black 384-well microplate. FP was measured immediately upon mixing (Excitation, 490 nm; Emission, 520 nm; g-factor, 0.96), using a Cytation3 (BioTek) microplate reader and measured continuously for up to 120 minutes. […] The competition binding assay (80 μl final volume) was validated using beta-lactams and PBPs at final concentrations of: 1.5 μM, E. coli PBP3; 0.75 μM, P. aeruginosa PBP3; 1 μM A. baumannii PBP1a; 2.5 μM A. baumannii PBP2; 0.2 μM A. baumannii PBP3; and […] N. gonorrhoeae PBP2. Bocillin-FL was at 0.1 μM (0.05 μM with A. baumannii PBP1a) and beta-lactam concentrations ranged from 0-1000 μM. […] Bocillin-FL was added and the FP immediately measured for up to 60 minutes (90 minutes for E. coli PBP2). […] The beta-lactam potency was reported as the concentration of beta-lactam required to reduce the amount of PBP bound-Bocillin-FL by 50% (EC50). […] Binding assays for boronic acid PBP inhibitors were performed in an identical fashion for the respective PBPs
In general terms: Polarisation of emitted light reports the rotation of a fluorescent probe.

Converted amounts (≈) assume the structure as drawn.

Chain of A. baumannii PBP1a (A0ABX6CK30 entry or part of it): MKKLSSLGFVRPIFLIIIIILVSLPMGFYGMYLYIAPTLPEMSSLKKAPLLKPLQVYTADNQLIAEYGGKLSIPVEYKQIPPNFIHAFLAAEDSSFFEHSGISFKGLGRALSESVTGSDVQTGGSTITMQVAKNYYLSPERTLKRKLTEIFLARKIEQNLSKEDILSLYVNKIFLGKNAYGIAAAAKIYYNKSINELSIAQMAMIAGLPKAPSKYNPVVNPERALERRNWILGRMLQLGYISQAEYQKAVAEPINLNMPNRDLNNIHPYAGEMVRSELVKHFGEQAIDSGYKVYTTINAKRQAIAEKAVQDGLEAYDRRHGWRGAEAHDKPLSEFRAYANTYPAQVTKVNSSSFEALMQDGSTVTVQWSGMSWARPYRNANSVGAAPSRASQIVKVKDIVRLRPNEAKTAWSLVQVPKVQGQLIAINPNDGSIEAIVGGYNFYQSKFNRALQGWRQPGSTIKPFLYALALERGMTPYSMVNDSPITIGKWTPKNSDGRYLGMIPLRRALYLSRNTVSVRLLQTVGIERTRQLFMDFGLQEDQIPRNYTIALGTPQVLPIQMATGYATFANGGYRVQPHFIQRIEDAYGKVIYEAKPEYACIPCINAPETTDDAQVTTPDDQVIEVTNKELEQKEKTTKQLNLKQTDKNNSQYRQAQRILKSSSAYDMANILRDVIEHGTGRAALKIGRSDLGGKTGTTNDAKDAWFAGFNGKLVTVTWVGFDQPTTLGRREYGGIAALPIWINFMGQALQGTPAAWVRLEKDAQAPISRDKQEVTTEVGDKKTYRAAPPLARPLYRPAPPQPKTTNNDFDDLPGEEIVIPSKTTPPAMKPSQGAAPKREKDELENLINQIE

Regarding `CCN1CCN(C(=O)N[C@H](C(=O)N[C@H]2Cc3ccc(F)c(C(=O)O)c3OB2O)c2c(F)cc(O)c(O)c2Cl)C(=O)C1=O` (single isomer, unassigned) [Example 125], the MIC (in the assay with A. baumannii ATCC 17978; in the assay on P. aeruginosa ATCC 35151; in assay [1]; with P. aeruginosa CDC-0110; in assay [2]) was more than 128 µg/mL each time.

Take `NC1(CN2CCN(C(=O)N[C@@H](C(=O)N[C@H]3Cc4ccc(F)c(C(=O)O)c4OB3O)c3cc(F)c(O)c(O)c3Cl)C(=O)C2=O)CC1` (single isomer, unassigned) [Example 133]: the MIC in the assay with A. baumannii ATCC 17978 is 0.25 µg/mL (≈ 0.384 µM); in the assay with P. aeruginosa ATCC 35151 it was 0.25 µg/mL (≈ 0.384 µM); in assay [1], 0.5 to 1 µg/mL (≈ 0.767 to 1.53 µM); in the assay on P. aeruginosa CDC-0110, 0.5 to 1 µg/mL (≈ 0.767 to 1.53 µM); in assay [2], 8 to 16 µg/mL (≈ 12.3 to 24.5 µM).

On to `NC1(CN2CCN(C(=O)N[C@@H](C(=O)N[C@H]3Cc4ccc(F)c(C(=O)O)c4OB3O)c3c(F)cc(O)c(O)c3Cl)C(=O)C2=O)CC1` (single isomer, unassigned) [Example 134], for which the MIC is 0.5 to 1 µg/mL (≈ 0.767 to 1.53 µM) with A. baumannii ATCC 17978; 0.25 µg/mL (≈ 0.384 µM) with P. aeruginosa ATCC 35151; 2 to 4 µg/mL (≈ 3.07 to 6.14 µM) in assay [1]; 2 to 4 µg/mL (≈ 3.07 to 6.14 µM) with P. aeruginosa CDC-0110; 32 to 64 µg/mL (≈ 49.1 to 98.2 µM) in assay [2]. For the same compound, on A. baumannii PBP1a, the EC50 was more than 100 µM.

In the case of `NCCN1CCN(C(=O)N[C@@H](C(=O)N[C@H]2Cc3ccc(F)c(C(=O)O)c3OB2O)c2cc(F)c(O)c(O)c2Cl)C(=O)C1=O` (single isomer, unassigned) [Example 179], the MIC with A. baumannii ATCC 17978 was 0.5 to 1 µg/mL (≈ 0.799 to 1.6 µM); with P. aeruginosa ATCC 35151 it was 0.25 µg/mL (≈ 0.4 µM); in assay [1] it was 2 to 4 µg/mL (≈ 3.2 to 6.39 µM); in the assay with P. aeruginosa CDC-0110, 0.5 to 1 µg/mL (≈ 0.799 to 1.6 µM); in assay [2], 8 to 16 µg/mL (≈ 12.8 to 25.6 µM). The EC50 at A. baumannii PBP1a was more than 100 µM.

Regarding `NCCCN1CCN(C(=O)N[C@@H](C(=O)N[C@H]2Cc3ccc(F)c(C(=O)O)c3OB2O)c2cc(F)c(O)c(O)c2Cl)C(=O)C1=O` (single isomer, unassigned) [Example 180], the MIC was 0.5 to 1 µg/mL (≈ 0.782 to 1.56 µM) in the assay on A. baumannii ATCC 17978; 0.25 µg/mL (≈ 0.391 µM) with P. aeruginosa ATCC 35151; 2 to 4 µg/mL (≈ 3.13 to 6.25 µM) in assay [1]; 0.25 µg/mL (≈ 0.391 µM) in the assay with P. aeruginosa CDC-0110; 2 to 4 µg/mL (≈ 3.13 to 6.25 µM) in assay [2]. In addition, the EC50 on A. baumannii PBP1a is more than 100 µM.

On to `C[C@@H](O)[C@@H](NC(=O)N1CCN(CCNC(=O)c2c(F)cc(O)c(O)c2Cl)C(=O)C1=O)C(=O)N[C@H]1Cc2ccc(F)c(C(=O)O)c2OB1O` [Example 102, (R)-3-((2R,3R)-2-(4-(2-(2-chloro-6-fluoro-3,4-dihydroxybenzamido)ethyl)-2,3-dioxopiperazine-1-carboxamido)-3-hydroxybutanamido)-7-fluoro-2-hydroxy-3,4-dihydro-2H-benzo[e][1,2]oxaborinine-8-carboxylic acid], for which the MIC is 2 to 4 µg/mL (≈ 2.87 to 5.73 µM) with A. baumannii ATCC 17978; 0.5 to 1 µg/mL (≈ 0.717 to 1.43 µM) in the assay on P. aeruginosa ATCC 35151; 2 to 4 µg/mL (≈ 2.87 to 5.73 µM) in assay [1]; 0.5 to 1 µg/mL (≈ 0.717 to 1.43 µM) in the assay on P. aeruginosa CDC-0110; 32 to 64 µg/mL (≈ 45.9 to 91.7 µM) in assay [2]. Moreover, at A. baumannii PBP1a, the EC50 was more than 100 µM.

With `NS(=O)(=O)Nc1cccc(C(NC(=O)N2CCN(Cc3c(F)cc(O)c(O)c3Cl)C(=O)C2=O)C(=O)N[C@H]2Cc3cccc(C(=O)O)c3OB2O)c1` (stereo partly drawn) [Example 131, (3R)-3-(2-(4-(2-chloro-6-fluoro-3,4-dihydroxybenzyl)-2,3-dioxopiperazine-1-carboxamido)-2-(3-(sulfamoylamino)phenyl)acetamido)-2-hydroxy-3,4-dihydro-2H-benzo[e][1,2]oxaborinine-8-carboxylic acid], the MIC was 0.5 to 1 µg/mL (≈ 0.668 to 1.34 µM) with A. baumannii ATCC 17978; 0.25 µg/mL (≈ 0.334 µM) in the assay with P. aeruginosa ATCC 35151; 2 to 4 µg/mL (≈ 2.67 to 5.34 µM) in assay [1]; 2 to 4 µg/mL (≈ 2.67 to 5.34 µM) with P. aeruginosa CDC-0110; more than 128 µg/mL in assay [2]. At A. baumannii PBP1a, the EC50 was in the range of 30 to 100 µM.

For the compound `NS(=O)(=O)c1cc(O)cc(C(NC(=O)N2CCN(Cc3c(F)cc(O)c(O)c3Cl)C(=O)C2=O)C(=O)N[C@H]2Cc3cccc(C(=O)O)c3OB2O)c1` (stereo partly drawn) [Example 132, (3R)-3-(2-(4-(2-chloro-6-fluoro-3,4-dihydroxybenzyl)-2,3-dioxopiperazine-1-carboxamido)-2-(3-hydroxy-5-sulfamoylphenyl)acetamido)-2-hydroxy-3,4-dihydro-2H-benzo[e][1,2]oxaborinine-8-carboxylic acid], the MIC with A. baumannii ATCC 17978 was more than 128 µg/mL; with P. aeruginosa ATCC 35151, 0.5 to 1 µg/mL (≈ 0.667 to 1.33 µM); in assay [1], 2 to 4 µg/mL (≈ 2.67 to 5.33 µM); in the assay with P. aeruginosa CDC-0110, 2 to 4 µg/mL (≈ 2.67 to 5.33 µM); in assay [2], more than 128 µg/mL. The EC50 on A. baumannii PBP1a was 30 to 100 µM.

As for `CCN1CCN(C(=O)NC(C(=O)N[C@H]2Cc3cccc(C(=O)O)c3OB2O)c2c(F)cc(N)cc2F)C(=O)C1=O` (stereo partly drawn) [Example 181, (3R)-3-(2-(4-amino-2,6-difluorophenyl)-2-(4-ethyl-2,3-dioxopiperazine-1-carboxamido)acetamido)-2-hydroxy-3,4-dihydro-2H-benzo[e][1,2]oxaborinine-8-carboxylic acid], the EC50 on A. baumannii PBP1a was more than 100 µM.
